According to publication PMC12154214, “Bioactive Peptides from Sodium Caseinate Hydrolysate with High Oral Absorption Regulate Blood Glucose in Type 2 Diabetic Mice via Inhibition of DPP-IV and Stimulation of GLP-1” (Foods, 2025):
“Also recorded” adds a separate entry of the source. Where two headings read alike, the source gives them in different places. No end group written: not given here.

Columns and labels:
db/db mice = test: Oral glucose tolerance test (OGTT) in db/db mice; format: in vivo; conditions: week 3, glucose 2 g/kg, 120 min, 1CBR 500 mg/kg/day, sitagliptin 20.5 mg/kg/day, p < 0.05
Description: In this study, db/db mice (BKS.Cg-Dock7m+/+Leprdb/JNarl from National Laboratory Animal Center, Taipei, Taiwan) 5 weeks of age and weighing 22–25 g were analyzed. The mice were given the 5001-Laboratory Rodent Diet (LabDiet®, St. Louis, MO, USA), which comprised 57% carbohydrate, 13% fat, and 30% protein by total kcal.
An OGTT was conducted on mice fasted overnight from each group at week 0 and week 3. Blood samples were collected by retro-orbital bleed at 0 to 120 min following a glucose challenge (2 g/kg) to determine glucose levels using a Glucose GOD-PAP kit (Randox Laboratories Ltd., Crumlin, UK).

plasma insulin = test: Plasma insulin level in db/db mice (ELISA); format: in vivo; conditions: after 3-week treatment, 1CBR 500 mg/kg/day, sitagliptin 20.5 mg/kg/day, untreated group C 6.51
Description: (§1) Between the ages of 6 and 8 weeks, the blood glucose concentrations in the mice were monitored weekly. Diabetes was determined in mice when the blood glucose levels surpassed 400 mg/dL after an OGTT test (oral glucose tolerance). The mice were randomly allocated to three groups, each consisting of 13 individuals. The experimental period lasted for 3 weeks. […] Mice were housed in groups of 3–4 per cage. The sample size was determined based on previous studies and ethical considerations (3Rs principle) to achieve adequate statistical power without excessive animal use. […] This dose was also within the effective range reported for other food-derived bioactive protein hydrolysates in rodent models.
(§2) At week 3, blood samples were obtained from all mice into EDTA-treated chilled tubes and then centrifuged at 3000× g for 15 min. The supernatant was kept on ice for up to 3 h for further analysis. Plasma insulin levels and DPP-IV activity were determined using an insulin ELISA kit (Mercodia AB, Uppsala, Sweden) and a DPP-IV assay kit (Enzo Inc., Farmingdale, NY, USA), respectively. Plasma total GLP-1 levels were measured using the glucagon-like peptide-1 (total) kit from RayBiotech Inc. (Norcross, GA, USA), while active GLP-1 levels were assessed with the active GLP-1 kit from Millipore Corp. (Billerica, MA, USA), each from a different supplier.

active GLP-1 = test: Plasma active GLP-1 level in db/db mice; format: in vivo; conditions: after 3-week treatment, 1CBR 500 mg/kg/day, sitagliptin 20.5 mg/kg/day, group C 5.22
Description: as §1, §2

total GLP-1 = test: Plasma total GLP-1 level in db/db mice; format: in vivo; conditions: after 3-week treatment, 1CBR 500 mg/kg/day, sitagliptin 20.5 mg/kg/day
Description: as §1, §2

NCI-H716 cells = test: In vitro GLP-1 secretion in NCI-H716 cells; format: cell-based, human; conditions: NCI-H716 cells, 2.0, 2.5 and 3.0 mM, 3 h
Description: (§3) NCI-H716 and STC-1 enteroendocrine cell lines are widely conducted to investigate the mechanisms of GLP-1 expression. The STC-1 and NCI-H716 cell lines in this study were sourced from Bioresource Collection and Research (BCRC, Hsinchu, Taiwan). STC-1 cells were seeded in 12-well plates at 2 × 10^6 cells/mL, while NCI-H716 cells were seeded in Matrigel-coated 12-well plates at 2 × 10^5 cells/mL. Upon reaching 85% confluence, the supernatants were replaced with HEPES buffer for STC-1 and RPMI-1640 buffer without FBS for NCI-H716. […] After incubating at 37 °C with 5% CO2 for 3 h, the supernatants were harvested and assessed for GLP-1 levels using the active glucagon-like peptide-1 kit from Millipore Corp. (Billerica, MA, USA).

STC-1 cells = test: In vitro GLP-1 secretion in STC-1 cells; format: cell-based; conditions: STC-1 cells, 2.0, 2.5 and 3.0 mM, 3 h
Description: as §3

DPP-IV = molecular target: T1, DPP-IV (Sus scrofa, UniProt P22411); test: In vitro DPP-IV inhibition assay; format: biochemical, porcine; conditions: synthesized peptides, in vitro enzymatic assay
T1 construct: purchased Sigma-Aldrich D7052; host or cells: porcine kidney (tissue-derived)
T1 sequence (P22411 whole entry): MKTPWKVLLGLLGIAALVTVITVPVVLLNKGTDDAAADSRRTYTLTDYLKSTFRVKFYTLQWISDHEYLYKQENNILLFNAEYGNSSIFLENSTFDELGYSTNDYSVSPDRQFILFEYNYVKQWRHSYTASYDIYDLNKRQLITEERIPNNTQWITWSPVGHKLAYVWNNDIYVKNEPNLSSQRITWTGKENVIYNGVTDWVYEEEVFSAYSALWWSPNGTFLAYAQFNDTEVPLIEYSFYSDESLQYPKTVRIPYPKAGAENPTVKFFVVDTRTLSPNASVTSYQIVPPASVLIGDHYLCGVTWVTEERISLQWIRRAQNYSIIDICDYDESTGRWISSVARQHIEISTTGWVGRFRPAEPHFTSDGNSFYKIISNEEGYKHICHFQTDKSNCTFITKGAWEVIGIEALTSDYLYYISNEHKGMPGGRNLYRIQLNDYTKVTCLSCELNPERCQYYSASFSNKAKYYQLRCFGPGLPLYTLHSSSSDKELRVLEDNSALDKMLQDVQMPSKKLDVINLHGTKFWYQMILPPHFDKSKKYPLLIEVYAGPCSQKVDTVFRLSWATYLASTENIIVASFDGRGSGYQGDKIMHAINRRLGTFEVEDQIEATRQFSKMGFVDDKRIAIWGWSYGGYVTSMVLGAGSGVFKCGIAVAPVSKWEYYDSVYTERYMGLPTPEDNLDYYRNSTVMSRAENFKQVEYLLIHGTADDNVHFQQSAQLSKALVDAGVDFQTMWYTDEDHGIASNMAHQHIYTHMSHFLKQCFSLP
Text: Sodium caseinate was obtained from Gemfont Inc. (Taipei, Taiwan). Bromelain, derived from pineapple stem, was obtained from STBIO Media Inc. (New Taipei, Taiwan). Dipeptidyl peptidase-IV (DPP-IV; D7052, sourced from porcine kidney), Gly-Pro-p-nitroanilide, HEPES sodium salt (H3784), and RPMI-1640 medium (R8758) were obtained from Sigma-Aldrich (St. Louis, MO, USA). The remaining chemicals and reagents were of analytical grade and were available from commercial suppliers.
In this study, 1CBR was purified by RP-HPLC using a Model L-2130 HPLC system (Hitachi Ltd., Katsuda, Japan). Afterward, 2 mg of the lyophilized hydrolysate fraction was reconstituted in 1 mL of ddH2O, and 60 μL of the resulting solution was subjected to injection onto a ZORBAX Eclipse Plus C18 column (4.6 mm × 250 mm, Agilent Tech. Inc., Santa Clara, CA, USA) for analysis. A gradient of acetonitrile, ranging from 5% to 60% over 60 min, was applied in 0.1% TFA at 0.7 mL/min. Peptides were monitored at 220 nm. After collection, each fraction was lyophilized and stored in a desiccator for future use. The fractions were then re-dissolved in 100 mM Tris buffer (pH 7.0) to achieve a 1 mg/mL concentration and were evaluated for in vitro DPP-IV inhibitory activity. The assay for DPP-IV inhibition was conducted following the procedure outlined in our previous study.
The selected peptides were generated through Fmoc-based solid-phase peptide synthesis using an automated synthesizer (CS 136, CS Bio Co., San Carlos, CA, USA). Their structural integrity and purity were confirmed via RP-HPLC-MS/MS analysis. To assess their inhibitory potential against DPP-IV, the IC50 values were determined through in vitro enzymatic assays. […]

[1] = design: species or system Sprague–Dawley rats; conditions: rat, in vivo; for AR30 (absorption ratio at 30 min) / AR90 (absorption ratio at 90 min) / AUC / Cmax / Fractional absorption / Tmax / half-life: po, 16 mg/kg
Text: In this study, GPFPLPD and […] peptides were synthesized and prepared for the in vivo absorption study as outlined in Section 2.4. The experiment involved ten male Sprague–Dawley rats (LASCO, Taipei, Taiwan), each 6 weeks old and weighing between 230 and 250 g. Prior to the experiment, the rats were allowed a 7-day acclimatization period, during which they were fed a 5012-Rat Diet (LabDiet®, St. Louis, MO, USA), consisting of 60% carbohydrates, 13% fat, and 27% protein based on total caloric content. The rats were randomly assigned to two groups (5 rats per group) and orally administered a single dose of either GPFPLPD or […] peptide at 16 mg/kg body weight.
Overnight-fasted rats were administered the peptides, and blood samples were collected from the tail vein at 0, 30, 60, 90, and 180 min post-administration. To obtain plasma, the samples were centrifuged at 3000× g for 15 min at 4 °C. A 500 µL aliquot of plasma was then combined with an equal volume of acetonitrile, followed by additional centrifugation at 1200× g for 10 min at 4 °C to precipitate high-molecular-weight proteins. The resulting supernatant (20 µL) was analyzed via RP-HPLC under the conditions outlined in Section 2.4. Peptide concentrations were quantified using calibration curves from peptide standards prepared in 50% (v/v) acetonitrile (Figure S4). The estimated blood volume of male rats was 6.86 mL per 100 g of body weight.
The pharmacokinetic parameters, including the half-life (t1/2), area under the plasma drug concentration–time curve (AUC), time-to-peak concentration (Tmax), and peak concentration (Cmax), were directly determined and analyzed. The absorption ratio (ARt; %) was defined as the percentage of the administered peptide dose (16 mg/kg BW) present in plasma, calculated as the product of peptide concentration and blood volume at each time point. The AUC method was also employed to quantify peptide absorption. The fractional absorption (%) of orally administered peptides was calculated using the following formula [23]: Fractional absorption (%)=ln2/t1/2×calculated oral AUC×plasma volume/oral dose×100

[2] = MALDI-TOF/TOF check of intact peptide in rat plasma; format: in vivo, Sprague–Dawley rats; conditions: 60 min post-administration, oral 16 mg/kg BW
Description: A 0.6 μL aliquot of peptide solution (1 mg/mL) was mixed with an equal volume of saturated α-cyano-4-hydroxycinnamic acid matrix and then air-dried on the target plate. The dried sample was subsequently analyzed using MALDI-TOF/TOF MS in positive ion reflection mode under a 20 kV accelerating voltage. Mass spectra were generated by averaging 200 laser shots within an m/z range of 200–2500 Da. Tandem mass spectrometry (MS/MS) was performed to determine peptide sequences, with data processed using BioTools software (Version 3.2, Bruker Daltonics, Billerica, MA, USA).
To verify that the peaks observed in the RP-HPLC chromatogram corresponded to the intact peptides GPFPLPD and […], plasma samples from rats with or without peptide administration were analyzed by MALDI-TOF/TOF, as described in Section 2.4.2.

[3] = design: method as in PMID 25387326; conditions: adult Wistar rats, 40 mg/kg BW; cited from earlier work
[4] = design: method as in PMID 38581395; conditions: rat model, cited from earlier work
[5] = design: method as in PMID 29732892; conditions: rats, single oral dose 100 mg/kg body weight; cited from earlier work

For `N[C@@H](CC(=O)N1CCn2c(nnc2C(F)(F)F)C1)Cc1cc(F)c(F)cc1F` [sitagliptin], the “OGTT AUC compared to group C” value (db/db mice) was “significantly lower AUC values”, the plasma insulin level (plasma insulin) was 11.31 µg/L and the “plasma active GLP-1 level” value (active GLP-1) was 12.29 pM. For the same compound, the “plasma total GLP-1 level” value (total GLP-1) was “unchanged”, the “effect on GLP-1 secretion (in words)” value (NCI-H716 cells) was “did not influence GLP-1 secretion; also recorded: failed to induce GLP-1 secretion” and the “effect on GLP-1 secretion (in words)” value (STC-1 cells) was “did not influence GLP-1 secretion; also recorded: failed to induce GLP-1 secretion”.

In the case of APDSGNFR, the IC50 (DPP-IV) is reported as 73.1 µM, the oral bioavailability [1] is reported as 19.12% and the “AR30 (absorption ratio at 30 min)” value [1] is reported as 12.74 ± 2.17%. The “AR90 (absorption ratio at 90 min)” value [1] was 12.40 ± 1.97%, the AUC [1] was 66600 ng·h/mL and the Cmax [1] was 44600 ± 9330 ng/mL. It also gave a Fractional absorption [1] of 10.8%, a Tmax [1] of 1 h and a half-life [1] of 1.82 h. The “structural integrity in plasma (MALDI-TOF/TOF)” value [2] was “remained structurally intact”.

With GGHLFFC [GGHLFFC] the IC50 (DPP-IV) was 642 µM.

GGKPSSMT showed an IC50 (DPP-IV) of 839 µM.

In the case of GPFPLPD [GPFPLPD], the IC50 (DPP-IV) is reported as 99.1 µM, the oral bioavailability [1] is reported as 11.28% and the “AR30 (absorption ratio at 30 min)” value [1] is reported as 10.21 ± 1.48%. For the same compound, the “AR90 (absorption ratio at 90 min)” value [1] was 6.52 ± 0.66%, the AUC [1] was 40200 ng·h/mL and the Cmax [1] was 26100 ± 4120 ng/mL. The Fractional absorption [1] was 7.2%, the Tmax [1] was 1 h and the half-life [1] was 1.65 h. For the same compound, the “structural integrity in plasma (MALDI-TOF/TOF)” value [2] was “remained structurally intact”.

In the case of HLPLP, the Cmax [3] is listed as 20.1 ng/mL and the absolute bioavailability [3] is listed as 5.18%.

For IRW, the elimination half-life ([4]; intravenous injection) is given as 0.475 h, the elimination half-life ([4]; oral administration) is given as 0.132 h and the bioavailability [4] is given as 11.7%.

In the case of WDHHAPQLR [antioxidative peptide], the bioavailability [5] is listed as 3.56% and the elimination half-life [5] is listed as 1.19 h.
